≈ marks a conversion by molar mass, not a printed value. Read-outs that look alike come from different tables or passages of the source.

For one data set, the system named is whole blood. Briefly: Hematological studies (whole blood count, RBC morphology). As to conditions: SD female rats, 30 mg/kg Mgf oral gavage, three times per week for 4 weeks.
Data set [1] in a line: In vivo pharmacokinetic studies. As to conditions: rat, oral, Mgf equivalent to 30 mg/kg. The protocol: In vivo pharmacokinetic studies were conducted by sparse sampling designed experiment. The formulations were administered through oral gavage on two groups of rats (n = 60). Within each group, five subgroups were designated (5 × 6 = 30 animals were employed in one group) and from one animal maximum two blood samples were withdrawn during the entire study alternating between left and right eyes. Group I was administered plain Mgf solution and Group II was given Mgf-SPNMS containing Mgf equivalent to 30mg/Kg. The animals were anesthetized employing isoflurane, and the blood (200 μL) was withdrawn from the retro-orbital plexus of rats at 0.5, 1, 2, 3, 6, 12, 18, 24, and 36 h, in heparin-coated micro-centrifuge tubes.
Further, plasma was harvested by centrifugation at 10,000 rpm (559 g) for 5 min and analyzed for Mgf using the previously reported and validated HPTLC method. The data were analyzed by non-compartmental and compartmental pharmacokinetic modeling approaches using the WinNonlin software, version 5.0 ([…]). Statistical tests like one-way/two-way ANOVA followed by post hoc multiple comparison tests, and Student’s independent t test has been applied wherever applicable.

Data set [2] can be described thus: Equilibrium solubility studies in emulgents and cosolvents. In kind it is physicochemical. As to conditions: 37 ± 1 °C. The protocol:
Solubility studies for Mgf were carried out for 72 h at 37 ± 1 °C in a water bath by adding an excess amount of drug in various water-soluble emulgents, viz. Acconon CC-6, Cremophor RH40, Cremophor EL, Vitamin E TPGS, Labrafil […], Labrasol, Tween 80 and Tween 40. Cosolvents employed included Transcutol HP, PEG 200, and propylene glycol. Aliquots of the filtrate were suitably diluted with methanol and analyzed using the HPTLC method previously reported by the authors at a λmax of 262 nm.

The nature of data set [3]: Biopharmaceutics classification (BCS). As to conditions: by virtue of low aqueous solubility and lipophilicity.
The test system of the next data set is vital organs. As to the kind of experiment: Histopathology of vital organs (in vivo toxicity). As to conditions: SD female rats, 30 mg/kg Mgf oral gavage, three times per week for 4 weeks.
For data set [4] the following is noted: excised rat small intestine, 2 h.
The next data set has as its target T1, BCRP transporters (Homo sapiens, UniProt Q9UNQ0).
T1 construct: endogenous in cells; host or cells: MCF-7 and MDA-MB-231 cells
T1 sequence (Q9UNQ0 1-655): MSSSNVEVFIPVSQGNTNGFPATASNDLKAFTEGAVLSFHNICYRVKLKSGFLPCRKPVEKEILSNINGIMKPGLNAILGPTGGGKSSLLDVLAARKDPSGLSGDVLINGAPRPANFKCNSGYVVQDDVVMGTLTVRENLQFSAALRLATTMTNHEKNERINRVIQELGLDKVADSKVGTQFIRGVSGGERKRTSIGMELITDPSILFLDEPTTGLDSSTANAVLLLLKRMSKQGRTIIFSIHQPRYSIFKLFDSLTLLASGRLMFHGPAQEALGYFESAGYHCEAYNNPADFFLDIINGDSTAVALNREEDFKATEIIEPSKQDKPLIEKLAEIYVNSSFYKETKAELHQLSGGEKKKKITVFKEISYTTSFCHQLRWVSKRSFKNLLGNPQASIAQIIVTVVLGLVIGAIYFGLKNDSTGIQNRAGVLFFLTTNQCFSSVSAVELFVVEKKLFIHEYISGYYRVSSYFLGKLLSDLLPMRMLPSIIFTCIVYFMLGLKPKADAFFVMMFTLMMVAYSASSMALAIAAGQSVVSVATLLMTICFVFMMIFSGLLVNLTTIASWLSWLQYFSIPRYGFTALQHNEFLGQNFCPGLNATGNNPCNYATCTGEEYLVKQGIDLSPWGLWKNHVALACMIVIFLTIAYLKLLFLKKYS
Briefly: P-gp efflux assay with DiOC2 dye (multi-drug resistance dye efflux kit). As to conditions: MCF-7 and MDA-MB-231 cells, 37 °C. In kind it is cell-based. The protocol: (§1) Overexpression of P-gp in MCF-7 and MDA-MB-231 cells is well-documented in literature. […] For evaluating the P-gp efflux, the multi-drug resistance dye efflux assay kit (Chemicon International, USA) was employed in which the MCF-7 and MDA-MB-231 cells (2.5 × 10^5) were treated with Rh-123 and DiOC2 dyes, with or without vinblastine. To assess the inhibitory activity of SPNMS on MDR1 transporters, these were incubated with Rh-123 alone, Rh-123 with SPNMS, and Rh-123 with vinblastine at 37 °C, along with Rh-123 at 4 °C. Likewise, to estimate the potential of the developed SPNMS formulation for blocking the activity of BCRP transporters, DiOC2 dye was employed. On similar heels, MCF-7 and MDA-MB-231 cells (2.5 × 10^5) were incubated with DiOC2 alone, DiOC2 with SPNMS, and DiOC2 with vinblastine at 37 °C, along with DiOC2 at 4 °C. The fluorescence intensity was measured in a TECAN fluorescence microplate reader at an excitation wavelength of 485 nm and an emission wavelength of 530 nm.

For the next data set, the target named is T2, MDR1 transporters (Homo sapiens, UniProt P08183).
T2 construct: Overexpression of P-gp in MCF-7 and MDA-MB-231 cells is well-documented in literature; endogenous in cells; host or cells: MCF-7 and MDA-MB-231 cells
T2 sequence (P08183 whole entry): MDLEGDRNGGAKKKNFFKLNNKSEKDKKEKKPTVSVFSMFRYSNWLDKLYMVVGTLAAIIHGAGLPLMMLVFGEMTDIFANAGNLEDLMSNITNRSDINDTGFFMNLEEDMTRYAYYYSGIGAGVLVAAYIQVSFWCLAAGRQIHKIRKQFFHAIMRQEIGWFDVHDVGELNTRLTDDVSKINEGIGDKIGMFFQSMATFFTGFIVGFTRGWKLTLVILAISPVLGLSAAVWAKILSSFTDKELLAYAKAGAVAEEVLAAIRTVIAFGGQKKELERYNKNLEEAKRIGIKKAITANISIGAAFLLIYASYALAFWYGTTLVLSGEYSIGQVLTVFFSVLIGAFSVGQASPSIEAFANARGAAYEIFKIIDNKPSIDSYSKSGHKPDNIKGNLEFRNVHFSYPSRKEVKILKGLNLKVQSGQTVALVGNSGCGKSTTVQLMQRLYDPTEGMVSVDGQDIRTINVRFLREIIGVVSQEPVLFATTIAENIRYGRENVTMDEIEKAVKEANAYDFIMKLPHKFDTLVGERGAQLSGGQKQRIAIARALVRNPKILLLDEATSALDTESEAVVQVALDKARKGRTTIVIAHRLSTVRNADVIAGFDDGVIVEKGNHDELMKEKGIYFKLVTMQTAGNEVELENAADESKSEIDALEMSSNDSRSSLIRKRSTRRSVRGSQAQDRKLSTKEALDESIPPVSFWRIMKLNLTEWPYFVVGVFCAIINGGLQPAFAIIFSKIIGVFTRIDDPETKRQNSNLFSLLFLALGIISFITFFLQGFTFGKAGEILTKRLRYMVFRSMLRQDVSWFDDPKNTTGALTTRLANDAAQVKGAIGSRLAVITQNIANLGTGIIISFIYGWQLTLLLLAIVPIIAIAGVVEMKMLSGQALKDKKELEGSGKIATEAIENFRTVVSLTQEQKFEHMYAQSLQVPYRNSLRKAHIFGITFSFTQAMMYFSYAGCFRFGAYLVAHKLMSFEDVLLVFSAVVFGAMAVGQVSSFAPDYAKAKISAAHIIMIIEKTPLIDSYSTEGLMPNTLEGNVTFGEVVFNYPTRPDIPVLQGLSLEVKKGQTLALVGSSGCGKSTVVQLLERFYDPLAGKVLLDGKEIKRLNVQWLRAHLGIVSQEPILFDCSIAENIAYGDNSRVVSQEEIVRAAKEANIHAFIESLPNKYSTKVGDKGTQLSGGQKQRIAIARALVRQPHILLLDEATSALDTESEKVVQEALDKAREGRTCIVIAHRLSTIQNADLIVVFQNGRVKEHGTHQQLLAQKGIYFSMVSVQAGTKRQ
As to the kind of experiment: P-gp efflux assay with Rh-123 dye (multi-drug resistance dye efflux kit). In kind it is cell-based. As to conditions: MCF-7 and MDA-MB-231 cells, 37 °C. How it is done:
as §1

In the case of `O=c1c2cc(O)c(O)cc2oc2cc(O)c([C@@H]3O[C@H](CO)[C@@H](O)[C@H](O)[C@H]3O)c(O)c12` [Mgf, mangiferin], in the data set with whole blood, the HCT turned out to be 43.9%, the HGB was 14.54 g/dL, the PLT count entry is “AG* 589 × 10^3/μL” and the RBC count worked out at 8.21e+06 µL⁻¹. In addition, the WBC count with whole blood was 16400 µL⁻¹. Besides, in data set [1] (plasma), the Cmax (in general, the maximum level reached in the sampled fluid or tissue) was 297 ± 56.4 ng/mL; the MRT (as a rule, the average time that molecules of a dose stay in the body) was determined as 8.16 ± 1.73 h; the Tmax – broadly, the time at which the peak concentration occurs – amounted to 3.08 ± 0.18 h. Further, in data set [1], the Cl amounted to 2543.44 ± 453.42 mL/h and the Ka stood at 0.32 ± 0.09 h⁻¹. In data set [2] (PEG 200 (cosolvent), highest among cosolvents, read-out: equilibrium solubility in PEG 200), the solubility thermodynamic at 72 h amounted to 10.2 mg/mL (≈ 24.2 mM). The solubility thermodynamic at 72 h in data set [2] (vitamin E TPGS (water-soluble emulgent), maximum among surfactants, read-out: equilibrium solubility in vitamin E TPGS) was 17.6 mg/mL (≈ 41.8 mM). In data set [3], the BCS class entry was “BCS class IV”. The “histopathological change(s) in vital organs” value in the data set on vital organs is reported as “no histopathological change(s)”.

As for `COC(=O)c1ccccc1-c1c2ccc(=N)cc-2oc2cc(N)ccc12` [Rh-123, Rhodamine 123], in data set [4], the “intestinal permeation (CLSM)” value is “does not permeate through the intestine”.

For the compound `CC[C@]1(O)C[C@@H]2CN(CCc3c([nH]c4ccccc34)[C@@](C(=O)OC)(c3cc4c(cc3OC)N(C)[C@H]3[C@@](O)(C(=O)OC)[C@H](OC(C)=O)[C@]5(CC)C=CCN6CC[C@]43[C@@H]65)C2)C1` [vinblastine], the “inhibition of DiOC2 efflux (fluorescence intensity)” value against BCRP transporters was “higher fluorescence intensity without any efflux”. Further, the “inhibition of Rh-123 efflux (fluorescence intensity)” value against MDR1 transporters is “higher fluorescence intensity without any efflux”.

The values above are taken from publication PMC5937873, “Improving the biopharmaceutical attributes of mangiferin using vitamin E-TPGS co-loaded self-assembled phosholipidic nano-mixed micellar systems” (Drug Delivery and Translational Research, 2018).
